Results on 2 compounds are retold here after patent US20040010001A1, “Methods and compositions for modulating cell proliferation and cell death” (priority 1999, published 2004).

Data set [1] deals with Human prostate PC3 tumor cells. Description: Intracellular drug accumulation with or without CM or r-bFGF. Particulars: unchanged with or without CM or r-bFGF; 1 nM paclitaxel, 50 nM doxorubicin, 500 nM 5-fluorouracil; 4 hours.
For data set [2], the system named is bladder, breast, head and neck, ovarian and prostate tumors from human patients. Description: Paclitaxel in histocultures of tumors obtained from human patients. It is filed as cell-based. Particulars: 96 tumors; bladder 2 hours, remaining tumors 96 hours. The protocol: The third study examined the relationship between the levels of aFGF and bFGF in human tumors and tumor sensitivity to anticancer agents. This study was performed using 96 tumors obtained from human patients, including include bladder, breast, head and neck, ovarian and prostate tumors. Paclitaxel was used as the model drug. […] The drug-induced antiproliferation was measured by inhibition of DNA precursor incorporation, and apoptosis was measured by morphological changes and by labeling of nicked DNA. aFGF, bFGF and other proteins known to contribute to drug resistance (i.e. the mdr1 p-glycoprotein, p53 and bcl-2) were detected by immunohistochemical staining.

Turning to `COc1cccc2c1C(=O)c1c(O)c3c(c(O)c1C2=O)C[C@@](O)(C(=O)CO)C[C@@H]3O[C@H]1C[C@H](N)[C@H](O)[C@H](C)O1` [Doxorubicin], in data set [1], the plateau intracellular concentration was 40 pmol/10^6 cells.

Consider `CC(=O)O[C@H]1C(=O)[C@@]2(C)[C@H]([C@H](OC(=O)c3ccccc3)[C@]3(O)C[C@H](OC(=O)[C@H](O)[C@@H](NC(=O)c4ccccc4)c4ccccc4)C(C)=C1C3(C)C)[C@]1(OC(C)=O)CO[C@@H]1C[C@@H]2O` [Paclitaxel], for which, in data set [2], the “tumors in which antiproliferation was produced” value is reported as 84% and the “tumors in which apoptosis was induced” value is listed as 96%.
